Laboratory results: US12122787B2, “Fused pyridone compound, and preparation method therefor and use thereof” (SHANGHAI JEMINCARE PHARMACEUTICALS CO., LTD, priority 2019, dated 2024)
Where two headings read alike, the source gives them in different places.

What was measured:
[1] = In vivo pharmacokinetic evaluation in mice by intravenous injection and oral administration; settings: male ICR mice
Description: In this experimental embodiment, in vivo pharmacokinetic evaluation was performed in mice by intravenous injection and oral administration.
Experimental methods and conditions: Male ICR mice were given a single dose of 1 mg/Kg (intravenous injection, solvent 5% DMSO+15% Solutol+80% saline) and 5 mg/Kg (intragastric administration, solvent 1% Tween80/2% HPMC/97% water) of the compound to be tested, respectively; 5 min, 15 min, 30 min, 1 hour, 2 hours, 4 hours, 6 hours, 8 hours, 24 hours after administration, blood was collected from the orbital vein, and each sample was collected at approximately 0.20 mL, anticoagulated with sodium heparin, placed on ice after collection, and centrifuged within 1 hour to separate the plasma for measurement. Plasma drug concentration in plasma was detected by liquid chromatography tandem mass spectrometry (LC/MS/MS) to calculate pharmacokinetic parameters.

[2] = tested on: NCI-H358 cells expressing KRAS-G12C; assay: Growth inhibition of tumor cell line expressing KRAS-G12C (Cell Titer Glo), NCI-H358; format: cell-based
Outline: (§1)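 NCI-H358 (RPMI, 10% FBS) and MIA PaCa2 (DMEM, 10% FBS, 2.5% horse serum) seeded at 1000 and 800 cells/well, adhered overnight, then treated 72 h at 0.1% DMSO. ATP by Cell Titer Glo; GI50 fitted from 9 concentrations at ⅓-fold dilution versus DMSO control.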

[3] = tested on: MIA PaCa2 cells expressing KRAS-G12C; assay: Growth inhibition of tumor cell line expressing KRAS-G12C (Cell Titer Glo), MIA PaCa2; format: cell-based; settings: MIA-Paca2, 72 hours
Outline: as §1

[4] = tested on: phosphorylated ERK (Thr202/Tyr204) in NCI-H358 cells expressing mutant RAS(G12C); assay: Inhibition of RAS-mediated signal transduction: phosphorylated ERK ELISA in NCI-H358 cells; format: cell-based; settings: NCI-H358 cells, 2 hours of treatment, pERK normalized by Janus Green B, read-out: p-ERK IC50 (NCI H358)
[5] = intragastric administration 5 mg/kg vs intravenous 1 mg/kg
[6] = intragastric administration 5 mg/kg, plasma
[7] = intravenous administration 1 mg/kg, plasma
[8] = mouse, po, intragastric administration 5 mg/kg, plasma
[9] = mouse, intravenous administration 1 mg/kg, plasma

Structure (SMILES)	F (%) [1, 5] [%]	AUCinf [1, 6] [ng·h/mL]	Cmax [1, 6] [ng/mL]	T1/2 [1, 6] [h]	AUCinf [1, 7] [ng·h/mL]	Cl [1, 7] [mL/min/kg]	T1/2 [1, 7] [h]	Vz [1, 7] [L/kg]	GI50 ([2]; NCI-H358, 72 hours) [nM]	GI50 [3] [nM]	IC50 [4] [nM]	GI50 ([2]; Homo sapiens, NCI-H358, 72 h) [nM]	GI50 ([3]; Homo sapiens, MIA PaCa-2, 72 h) [nM]	IC50 ([4]; Homo sapiens, NCI-H358, 2 h) [nM]	further results
C=CC(=O)N1C[C@@H]2C(=O)N(CCN(C)C)c3c(c4cc(Cl)c(-c5c(F)cccc5OC)c(F)c4n(-c4c(C)ccnc4C(C)C)c3=O)N2C[C@H]1C (atropisomer, axis not shown) [Compound 27C]	20.30	526.88	133.67	1.78	519.01	32.11	1.76	4.89344	5	3	4				
C=CC(=O)N1CC2COc3c(c4cc(F)c(-c5c(O)cccc5F)c(F)c4n(-c4c(C)ccnc4C(C)C)c3=O)N2CC1C (single isomer, unassigned) [Compound 3B-2]	17.01	1984.18	746.67	3.96	2333.44	7.14	5.99	3.7066	5	31	6				
C=CC(=O)N1C[C@@H]2C(=O)N(C)c3c(c4cc(Cl)c(-c5c(F)cccc5OC)c(F)c4n(-c4c(C)ccnc4C(C)C)c3=O)N2C[C@H]1C [Compound 42A]												9	228	9	
C=CC(=O)N1CCN(c2nc(=O)n(-c3c(C)ccnc3C(C)C)c3nc(-c4c(O)cccc4F)c(F)cc23)[C@@H](C)C1 [AMG 510]															bioavailability ([1]; mouse, plasma, oral, intragastric administration 5 mg/kg vs intravenous 1 mg/kg): 17.6%; AUC(0-inf) [1, 8]: 155 ng·h/mL; half-life [1, 8]: 0.57 h; Cmax ([1]; mouse, po, intragastric administration 5 mg/kg, plasma, read-out: Cmax): 177 ng/mL; AUC(0-inf) [1, 9]: 176 ng·h/mL; clearance [1, 9]: 94.6 mL/min/kg; half-life [1, 9]: 0.26 h; Vd ([1]; mouse, intravenous administration 1 mg/kg, plasma, read-out: Vz): 2.16 L/kg
C=CC(=O)N1C[C@@H]2C(=O)N(C)c3c(c4cc(F)c(-c5c(C)ccc6[nH]nc(N)c56)c(F)c4n(-c4c(C)ccnc4C(C)C)c3=O)N2C[C@H]1C [Compound 28A]												7	9	6	
